Format in all cases: biochemical
One experiment concerns the target T1, m-NTPDase2 (Mus musculus, UniProt O55026).
T1 construct: made in house; host or cells: COS-7 cells, transient transfection; crude protein extract after sonication
T1 sequence (O55026 1-495): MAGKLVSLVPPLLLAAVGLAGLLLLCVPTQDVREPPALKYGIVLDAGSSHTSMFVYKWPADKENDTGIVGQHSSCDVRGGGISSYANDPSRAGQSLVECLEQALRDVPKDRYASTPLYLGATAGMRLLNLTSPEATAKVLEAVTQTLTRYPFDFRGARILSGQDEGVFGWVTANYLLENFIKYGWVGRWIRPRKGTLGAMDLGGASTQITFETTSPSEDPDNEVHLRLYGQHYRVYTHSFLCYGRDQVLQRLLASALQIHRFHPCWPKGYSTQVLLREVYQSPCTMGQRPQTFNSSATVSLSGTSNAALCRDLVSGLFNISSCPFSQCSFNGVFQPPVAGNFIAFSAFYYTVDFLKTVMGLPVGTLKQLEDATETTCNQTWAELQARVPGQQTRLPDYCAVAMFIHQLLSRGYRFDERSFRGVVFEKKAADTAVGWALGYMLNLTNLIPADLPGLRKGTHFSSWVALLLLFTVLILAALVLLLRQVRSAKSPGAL
The experiment is described as follows: m-NTPDase2 inhibition, malachite green assay. As to conditions: for inhibition at 100 µM: compound 100 µM; for IC50: mean ± SEM of three independent experiments. How it is done:
(§1) COS-7 cells were transfected with plasmids expressing human or mouse NTPDases1, -2, -3, and -8 as previously described ([Levesque et al., 2007]; [Lecka et al., 2014]) Briefly, the confluent cells were transferred to Dulbecco’s Modified Eagle’s Medium containing no fetal bovine serum. Then, these cells were incubated with plasmid DNA (6 µg) and Lipofectamine reagent (24 µl) at 37°C. After 5 h, transfection was terminated with the addition of an equal volume of DMEM/F-12 (supplemented with 20% FBS) and cells were collected by harvesting after 40–72 h.
(§2) To prepare protein extracts, transfected COS-7 cells were washed three times with tris-saline buffer while temperature was maintained at 4°C. Then cells were scraped and resuspended in harvesting buffer containing 95 mM NaCl, 45 mM tris and 0.1 mM phenylmethylsulfonyl fluoride (pH 7.5). Cells were again washed twice by centrifugation for 5 min at 300 × g at 4°C and then resuspended in harvesting buffer (supplemented with 10 μg ml aprotinin). Following sonication, cellular debris was isolated by 10 min centrifugation at 300 g at 4°C. Subsequently, supernatant was removed very carefully and protein concentration was determined by using Bradford microplate assay while using the bovine serum albumin as a standard ([Bradford, 1976]).
(§3) The inhibitory effects of synthesized compounds on h-NTPDase1, -2, -3, and -8 were determined as described previously, although with slight modifications ([Martín-Satué et al., 2009]). Assay was conducted in a reaction medium containing 50 mM tris-HCl and 5 mM CaCl2 (pH 7.4). All the test compounds were dissolved in dimethyl sulfoxide (DMSO, 10%) and initially screened at a concentration of 100 µM. A reaction mixture containing 55 µl of assay buffer, 10 µl of test compound solution and 10 µl of h-NTPDase1 (58 ng/well) or h-NTPDase2 (79 ng/well) or h-NTPDase3 (163 ng/well) or h-NTPDase8 (66 ng/well) was incubated at 37°C for 10 min. Following the incubation, a 10 µl solution of adenosine triphosphate (ATP, 100 µm) was added as substrate and reaction mixture was again incubated for 15 min at 37°C. The reaction was stopped by adding malachite green reagent (15 µl) and placed at room temperature for 4 to 6 min. Finally, absorbance was measured at 630 nm by using Omega FLUOstar microplate reader (BMG Labtech, Ortenberg, Germany) and % inhibitions were calculated. For compounds showing more than 50% inhibition of any isozyme, dose response curves were generated and their IC50 values were determined. Three separate enzyme inhibition assays were carried out in triplicate and dose-response curve were generated by using PRISM 5.0 (GraphPad, San Diego, United States).
(§4) Same procedure was adopted to determine the inhibitory effects of compounds on mouse NTPDases (m-NTPDases). However, the amount of protein used was as follows: m-NTPDase1 (82 ng/well), m-NTPDase2 (57 ng/well), m-NTPDase3 (110 ng/well) and m-NTPDase8 (79 ng/well)

In the next experiment the target is T2, m-NTPDase8 (Mus musculus, UniProt Q8K0L2).
T2 construct: made in house; host or cells: COS-7 cells, transient transfection; crude protein extract after sonication
T2 sequence (Q8K0L2 1-497): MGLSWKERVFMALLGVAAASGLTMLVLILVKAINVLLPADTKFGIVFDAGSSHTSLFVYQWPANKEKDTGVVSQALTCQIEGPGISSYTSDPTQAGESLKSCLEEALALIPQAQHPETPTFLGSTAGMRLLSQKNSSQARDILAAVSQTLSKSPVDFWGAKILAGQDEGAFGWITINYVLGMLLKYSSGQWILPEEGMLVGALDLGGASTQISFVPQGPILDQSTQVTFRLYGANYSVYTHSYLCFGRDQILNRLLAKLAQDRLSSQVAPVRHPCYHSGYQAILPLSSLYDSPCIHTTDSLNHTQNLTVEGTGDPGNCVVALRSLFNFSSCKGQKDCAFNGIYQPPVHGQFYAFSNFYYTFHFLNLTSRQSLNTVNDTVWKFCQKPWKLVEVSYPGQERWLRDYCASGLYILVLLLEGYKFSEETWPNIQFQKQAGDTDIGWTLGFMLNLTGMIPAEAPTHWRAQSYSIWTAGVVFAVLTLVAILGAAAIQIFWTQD
Description: m-NTPDase8 inhibition, malachite green assay. The following applies: for inhibition at 100 µM: compound 100 µM; for IC50: mean ± SEM of three independent experiments. How it is done:
as §1, §2, §3, §4

Another experiment addresses T3, h-NTPDase8 (Homo sapiens, UniProt Q5MY95).
T3 construct: made in house; host or cells: COS-7 cells, transient transfection; crude protein extract after sonication
T3 sequence (Q5MY95 1-495): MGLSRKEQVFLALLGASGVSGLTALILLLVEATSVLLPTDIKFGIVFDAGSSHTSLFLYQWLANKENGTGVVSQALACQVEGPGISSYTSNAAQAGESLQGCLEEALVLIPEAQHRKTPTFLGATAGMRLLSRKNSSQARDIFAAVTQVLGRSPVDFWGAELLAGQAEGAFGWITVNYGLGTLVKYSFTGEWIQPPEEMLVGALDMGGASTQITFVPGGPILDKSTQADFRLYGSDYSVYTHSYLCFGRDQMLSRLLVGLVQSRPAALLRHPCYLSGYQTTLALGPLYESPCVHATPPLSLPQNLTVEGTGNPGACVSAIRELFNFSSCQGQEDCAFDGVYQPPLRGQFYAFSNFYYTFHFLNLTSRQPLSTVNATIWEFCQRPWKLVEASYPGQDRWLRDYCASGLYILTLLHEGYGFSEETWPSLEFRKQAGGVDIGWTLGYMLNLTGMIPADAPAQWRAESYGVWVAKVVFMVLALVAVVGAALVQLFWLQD
The experiment is described as follows: h-NTPDase8 inhibition, malachite green assay. The following applies: for inhibition at 100 µM: compound 100 µM; for IC50: ATP 100 µM substrate, mean ± SEM of three independent experiments. As for the experimental part:
as §1, §2, §3

The results in this text go back to paper PMC7734281, “Functionalized Oxoindolin Hydrazine Carbothioamide Derivatives as Highly Potent Inhibitors of Nucleoside Triphosphate Diphosphohydrolases” (Frontiers in Pharmacology, 2020).

Usually inhibition stands for the percentage by which the read-out fell short of the control. The low end stands for a response near the control, the high end for a response far below the control. Turning to `O=C1Nc2ccccc2/C1=N/NC(=S)Nc1cccc(Cl)c1` [8g, (Z)-N-(3-chlorophenyl)-2-(2-oxoindolin-3-ylidene)hydrazine-1-carbothioamide], the inhibition at 100 µM against m-NTPDase2 amounted to 36%; against m-NTPDase8, 36%; against h-NTPDase8 it was 7%.

One may read the Ki as a measure of affinity in units of concentration, obtained from inhibition or displacement. A lower Ki goes with tighter binding. As usually defined, the IC50 is the concentration needed to halve the response being measured. A low value points to greater potency in that assay. On m-NTPDase2, `O=C1Nc2ccccc2/C1=N/NC(=S)Nc1c(F)cccc1F` [8l, (Z)-N-(2,6-difluorophenyl)-2-(2-oxoindolin-3-ylidene)hydrazine-1-carbothioamide] showed a Ki of 0.05 µM and an IC50 of 0.2 ± 0.01 µM. In addition, on m-NTPDase8, testing at 100 µM gave an inhibition of 13%. In addition, on h-NTPDase8, the inhibition at 100 µM is < 50%.

`O=C1Nc2ccccc2/C1=N/NC(=S)Nc1ccc([N+](=O)[O-])cc1` [8b, (Z)-N-(4-nitrophenyl)-2-(2-oxoindolin-3-ylidene)hydrazine-1-carbothioamide]: the inhibition at 100 µM against m-NTPDase2 is 31%; against m-NTPDase8 it was 30%.

`COc1ccc(NC(=S)NNC2=c3ccccc3=NC2=O)cc1` [8k, (Z)-N-(4-methoxyphenyl)-2-(2-oxoindolin-3-ylidene)hydrazine-1-carbothioamide]: the inhibition at 100 µM against m-NTPDase2 was 29%; on m-NTPDase8, 24%; against h-NTPDase8, 46%.

With `O=C1Nc2ccccc2/C1=N/NC(=S)Nc1ccc(F)cc1` [8d, (Z)-N-(4-fluorophenyl)-2-(2-oxoindolin-3-ylidene)hydrazine-1-carbothioamide], the inhibition at 100 µM against m-NTPDase2 was 27%; against h-NTPDase8, 33%. For the same compound, the affinity at m-NTPDase8 corresponds to a Ki of 0.17 µM. This compound also displayed an IC50 on m-NTPDase8 of 1.45 ± 0.12 µM.

As to `Cc1ccc(NC(=S)N/N=C2\C(=O)Nc3ccccc32)cc1` [8h, (Z)-2-(2-oxoindolin-3-ylidene)-N-(p-tolyl)hydrazine-1-carbothioamide], the results for the inhibition at 100 µM against m-NTPDase2, at m-NTPDase8 and against h-NTPDase8 were 31%, 28% and 22%, respectively.

Take `COc1ccc(OC)c(NC(=S)N/N=C2\C(=O)Nc3ccccc32)c1` [8j, (Z)-N-(2,5-dimethoxyphenyl)-2-(2-oxoindolin-3-ylidene)hydrazine-1-carbothioamide]: the inhibition at 100 µM stood at 27% against m-NTPDase2, 32% at m-NTPDase8 and 19% against h-NTPDase8.

On to `O=C1Nc2ccccc2/C1=N/NC(=S)NCc1ccccc1` [8f, (Z)-N-benzyl-2-(2-oxoindolin-3-ylidene)hydrazine-1-carbothioamide], for which the inhibition at 100 µM on m-NTPDase2 is 34%; against m-NTPDase8, 38%; on h-NTPDase8, < 50%.

As to `COc1cccc(NC(=S)N/N=C2\C(=O)Nc3ccccc32)c1` [8e, (Z)-N-(3-methoxyphenyl)-2-(2-oxoindolin-3-ylidene)hydrazine-1-carbothioamide], the inhibition at 100 µM against m-NTPDase2 stood at 29%. Further, at m-NTPDase8, the affinity, expressed as Ki, was 0.44 µM and the IC50 stood at 3.8 ± 0.21 µM.

Turning to `O=C1Nc2ccccc2/C1=N/NC(=S)Nc1ccccc1` [8a, (Z)-2-(2-oxoindolin-3-ylidene)-N-phenylhydrazine-1-carbothioamide], the inhibition at 100 µM against m-NTPDase2 was determined as 42%; against m-NTPDase8 it was 28%; on h-NTPDase8, 24%.

On m-NTPDase2, `CCNC(=S)N/N=C1\C(=O)Nc2ccccc21` [8m, (Z)-N-ethyl-2-(2-oxoindolin-3-ylidene)hydrazine-1-carbothioamide] came in with a Ki of 0.41 µM and an IC50 of 1.5 ± 0.11 µM. The same compound displayed an inhibition at 100 µM against m-NTPDase8 of 35%. Also, 100 µM produced 38% inhibition at h-NTPDase8.

In the case of `Cc1cccc(C)c1NC(=S)N/N=C1\C(=O)Nc2ccccc21` [8i, (Z)-N-(2,6-dimethylphenyl)-2-(2-oxoindolin-3-ylidene)hydrazine-1-carbothioamide], the Ki at m-NTPDase2 was determined as 0.04 µM. The same compound had an IC50 against m-NTPDase2 of 0.15 ± 0.01 µM. Moreover, the inhibition at 100 µM against m-NTPDase8 came out at 26%; against h-NTPDase8 it was 17%.

On m-NTPDase2, `O=C1Nc2ccccc2/C1=N/NC(=S)Nc1ccc(Cl)cc1` [8c, (Z)-N-(4-chlorophenyl)-2-(2-oxoindolin-3-ylidene)hydrazine-1-carbothioamide] showed an inhibition at 100 µM of 36%. For the same compound, 100 µM produced 36% inhibition at m-NTPDase8. At h-NTPDase8, this compound returned an inhibitory constant (Ki) of 0.11 µM and an IC50 of 0.24 ± 0.02 µM.

In the case of `Cc1ccc(C(=O)Nc2ccc(S(=O)(=O)O)c3cc(S(=O)(=O)O)cc(S(=O)(=O)O)c23)cc1NC(=O)c1cccc(NC(=O)Nc2cccc(C(=O)Nc3cc(C(=O)Nc4ccc(S(=O)(=O)O)c5cc(S(=O)(=O)O)cc(S(=O)(=O)O)c45)ccc3C)c2)c1` [Suramin, reference compound], the Ki at m-NTPDase2 came to 5.67 µM. Also, the IC50 is 21 ± 2 µM on m-NTPDase2, > 100 µM against m-NTPDase8 and > 100 µM against h-NTPDase8.
